The record followed here is ChEMBL document CHEMBL6092154, “Design, synthesis, and evaluation of a novel TRAIL-activated HDAC6 inhibitor for the treatment of pulmonary fibrosis” (Bioorg Med Chem, 2024).

Calls of active or inactive are those of the source. The rule behind the calls is not given here.

The nature of data set [1]: Toxicity against silicosis C57BL/6J mouse model assessed as ALT index in serum at 50 mg/kg, ig administered daily via gavage and measured on day 28. Type of data set: organism-based. The conditions noted are these: in vivo, po, 672 h, time 28 day.
In data set [2] the test system is Mus musculus. Put plainly: Anti-pulmonary fibrosis activity in bleomycin-induced idiopathic pulmonary fibrosis C57BL/6J mouse model assessed as decrease in lung damage by measuring decrease in collagen deposition in lung at 25 to 50 mg/kg, ig administered daily via gavage and measured on day 14 by Hematoxylin-Eosin staining based analysis. Type of data set: functional, organism-based. The conditions noted are these: dose 25-50 mg/kg, time 14.0 day.

Data set [3] concerns Mus musculus. Put plainly: Anti-pulmonary fibrosis activity in bleomycin-induced idiopathic pulmonary fibrosis C57BL/6J mouse model assessed as decrease in lung damage by measuring decrease in collagen deposition in lung at 25 to 50 mg/kg, ig administered daily via gavage and measured on day 14 by Sirius red staining based analysis. Type of data set: functional, organism-based. The conditions noted are these: dose 25-50 mg/kg, time 14.0 day.

In data set [4] the test system is Mus musculus. The data set can be described thus: Anti-pulmonary fibrosis activity in bleomycin-induced idiopathic pulmonary fibrosis C57BL/6J mouse model assessed as decrease in lung damage by measuring decrease in inflammatory cell infiltration in lungs at 25 to 50 mg/kg, ig administered daily via gavage and measured on day 14 by Masson's trichrome staining based analysis. Type of data set: functional, organism-based. The conditions noted are these: dose 25-50 mg/kg, time 14.0 day.

The target of data set [5] is T1, Protein deacetylase HDAC6 (Mus musculus) (UniProt Q9Z2V5).
T1 sequence (whole entry): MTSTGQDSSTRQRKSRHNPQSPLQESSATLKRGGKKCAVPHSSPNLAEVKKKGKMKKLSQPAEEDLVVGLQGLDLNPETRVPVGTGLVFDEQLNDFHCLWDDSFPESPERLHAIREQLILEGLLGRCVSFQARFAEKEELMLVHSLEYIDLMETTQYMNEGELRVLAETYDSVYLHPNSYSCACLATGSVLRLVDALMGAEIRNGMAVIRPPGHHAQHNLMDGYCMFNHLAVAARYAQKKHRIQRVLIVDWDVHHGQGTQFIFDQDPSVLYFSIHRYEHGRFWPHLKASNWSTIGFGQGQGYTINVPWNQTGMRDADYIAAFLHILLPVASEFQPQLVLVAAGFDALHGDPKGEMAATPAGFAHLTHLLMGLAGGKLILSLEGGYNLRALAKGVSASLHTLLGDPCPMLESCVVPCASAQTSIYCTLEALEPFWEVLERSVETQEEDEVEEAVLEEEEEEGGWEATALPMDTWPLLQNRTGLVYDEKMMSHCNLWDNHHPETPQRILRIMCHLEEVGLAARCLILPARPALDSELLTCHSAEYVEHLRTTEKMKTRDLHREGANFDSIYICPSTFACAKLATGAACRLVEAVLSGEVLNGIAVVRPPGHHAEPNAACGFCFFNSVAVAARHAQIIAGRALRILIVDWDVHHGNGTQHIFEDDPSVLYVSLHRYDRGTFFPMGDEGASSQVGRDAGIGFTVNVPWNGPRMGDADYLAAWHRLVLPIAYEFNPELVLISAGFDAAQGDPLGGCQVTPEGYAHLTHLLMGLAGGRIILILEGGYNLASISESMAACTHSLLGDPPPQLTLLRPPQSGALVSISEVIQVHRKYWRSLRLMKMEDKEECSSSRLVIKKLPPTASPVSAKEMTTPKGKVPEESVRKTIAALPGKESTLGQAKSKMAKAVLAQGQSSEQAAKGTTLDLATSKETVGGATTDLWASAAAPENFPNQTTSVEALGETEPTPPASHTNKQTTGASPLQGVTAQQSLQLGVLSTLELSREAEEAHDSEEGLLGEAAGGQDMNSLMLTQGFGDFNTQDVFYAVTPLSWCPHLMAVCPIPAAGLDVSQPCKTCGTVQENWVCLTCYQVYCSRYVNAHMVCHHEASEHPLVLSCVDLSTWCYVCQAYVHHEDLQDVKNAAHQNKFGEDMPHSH
Put plainly: In vivo inhibition of HDAC6 in bleomycin-induced idiopathic pulmonary fibrosis C57BL/6J mouse model assessed as increase in acetylated alpha-tubulin level in lung at 50 mg/kg, ig administered via gavage and measured on day 14 by western blot analysis. Type of data set: functional, organism-based. Conditions: time 14.0 day.

The nature of data set [6]: Toxicity against silicosis C57BL/6J mouse model assessed as effect on spleen morphological changes at 50 mg/kg, ig administered daily via gavage and measured on day 28 by Hematoxylin-Eosin staining based analysis. Type of data set: organism-based. The conditions noted are these: in vivo, po, 672 h, time 28 day.
For data set [7], the target named is T2, Protein deacetylase HDAC6 (Homo sapiens) (UniProt Q9UBN7).
T2 sequence (whole entry): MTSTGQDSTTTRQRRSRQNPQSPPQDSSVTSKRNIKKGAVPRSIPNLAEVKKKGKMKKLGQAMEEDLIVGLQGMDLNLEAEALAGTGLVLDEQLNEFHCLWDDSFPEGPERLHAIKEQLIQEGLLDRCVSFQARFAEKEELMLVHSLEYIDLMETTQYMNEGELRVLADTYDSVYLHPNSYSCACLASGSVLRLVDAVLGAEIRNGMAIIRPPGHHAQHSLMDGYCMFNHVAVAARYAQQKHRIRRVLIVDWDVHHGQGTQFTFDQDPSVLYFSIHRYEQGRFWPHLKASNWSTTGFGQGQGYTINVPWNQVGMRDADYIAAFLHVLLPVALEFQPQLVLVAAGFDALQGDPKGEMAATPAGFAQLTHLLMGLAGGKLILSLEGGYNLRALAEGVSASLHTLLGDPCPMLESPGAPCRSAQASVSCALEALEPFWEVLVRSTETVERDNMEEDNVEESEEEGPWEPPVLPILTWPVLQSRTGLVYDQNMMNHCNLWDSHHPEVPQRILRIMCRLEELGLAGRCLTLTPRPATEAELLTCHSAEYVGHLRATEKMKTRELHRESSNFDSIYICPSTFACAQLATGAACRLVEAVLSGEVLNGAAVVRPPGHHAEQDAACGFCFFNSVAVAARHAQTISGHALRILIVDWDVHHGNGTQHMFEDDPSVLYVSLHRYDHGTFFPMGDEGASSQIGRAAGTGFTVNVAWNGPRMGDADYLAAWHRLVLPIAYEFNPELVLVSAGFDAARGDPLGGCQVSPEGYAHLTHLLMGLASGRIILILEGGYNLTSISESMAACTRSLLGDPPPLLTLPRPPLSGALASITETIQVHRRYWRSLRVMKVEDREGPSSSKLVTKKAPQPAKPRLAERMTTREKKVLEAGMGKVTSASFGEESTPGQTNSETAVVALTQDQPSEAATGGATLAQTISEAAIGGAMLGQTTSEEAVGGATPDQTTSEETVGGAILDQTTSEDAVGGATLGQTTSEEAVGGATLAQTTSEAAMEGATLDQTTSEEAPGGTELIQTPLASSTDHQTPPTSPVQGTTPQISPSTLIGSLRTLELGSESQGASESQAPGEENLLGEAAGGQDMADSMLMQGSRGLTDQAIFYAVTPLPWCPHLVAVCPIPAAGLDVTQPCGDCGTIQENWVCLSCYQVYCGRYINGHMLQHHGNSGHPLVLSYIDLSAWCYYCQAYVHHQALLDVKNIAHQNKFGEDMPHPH
Put plainly: Inhibition of HDAC6 in human RPMI-8226 cells assessed as increase in acetylated histone H4 level at 0.25 to 1 uM incubated for 24 hrs by western blot analysis. Type of data set: cell-based. Conditions: dose 0.25-1 µM. A general note: A western blot detects proteins with antibodies after separation by electrophoresis.

Take `O=C(NO)c1ccc(CN2C(=O)C3=C(CCN(Cc4cccc(Cl)c4)C3)N3CCN=C23)cc1`: the Activity entry in data set [1] and in data set [6] was “Non-toxic” throughout. Also, the outcome in data set [2], in data set [3] and in data set [4] was Active. For the same compound, the inhibition result in data set [5] was “Active; Levels Lower Than The Positive Control, Acy-1215”. In addition, in data set [7], the inhibition result was “Active”.
